This passage reports melting point, IC50 and EC50 results from US20090221559A1 (priority 2005, published 2009).

The target of data set [1] is T1, HCV NS5B polymerase (His-tagged, C-terminal 21 amino acid deleted NS5B, HC-J4) (Hepatitis C virus genotype 1b, UniProt O92972).
T1 construct: The cDNA encoding NS5B amino acid 1-570 (HC-J4, genotype 1b); His tag (His6, from pET-21b) (C); made in house; host or cells: E. coli BL21 (DE3)
Kind of data set: NS5b polymerase assay (biochemical RdRp assay, 3H-GTP incorporation, SPA beads). Set-up: species or system HCV genotype 1b. The procedure, abridged:
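His-tagged C-terminal-21-aa-deleted NS5B (genotype 1b, HC-J4) at 200 nM was preincubated 15 min at RT with compound on 5′-biotinylated oligo(rG13)/poly(rC) template/primer before NTPs. Reaction with 600 nM GTP plus 0.1 μCi 3H-GTP and 5 mM MgCl2 in Tris pH 7.5 ran 2 h at 25 °C. Stopped with EDTA/SPA beads for incorporation counting.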

For data set [2], the system named is HCV replicon RNA replication in Huh-7 luc/neo (Huh-Luc) cells. Kind of data set: HCV replicon assay (stable replicon cell reporter assay, luciferase read-out). In kind it is cell-based, HCV type 1b. The procedure, abridged:
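Huh-7 cells stably carry a bicistronic HCV 1b NS3-NS5B subgenomic replicon with firefly luciferase and neo markers. Cells were plated with compound across a concentration range and incubated three days. Replication was measured as luciferase activity to give dose-response curves.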
For orientation: Replicon systems follow genome replication, usually without infectious particles.

Setting [3] is: NS5B Polymerase Assay IC50, 200 nM enzyme, 3H-GTP incorporation, 2 h at 25° C.
Where [4] appears, read: Hepatitis C virus, Huh-7, 72 h, read-out: Replicon Assay EC50, Huh-Luc cells, three days incubation, luciferase activity.
[5] abbreviates: NS5B Polymerase Assay IC50 (μM).
Where [6] appears, read: Hepatitis C virus, Huh-7, 72 h, read-out: Replicon Assay EC50 (μM), Huh-Luc cells, incubation of three days, luciferase activity.

Where two headings read alike, the source gives them in different places.

Broadly, the melting point is the temperature, or range, at which the solid turns liquid. The term IC50 denotes the point on the concentration scale where inhibition reaches its midpoint. In general, EC50 refers to the midpoint of the concentration-response curve.

T1 sequence (O92972 2417-3000, looked up, stated change not applied): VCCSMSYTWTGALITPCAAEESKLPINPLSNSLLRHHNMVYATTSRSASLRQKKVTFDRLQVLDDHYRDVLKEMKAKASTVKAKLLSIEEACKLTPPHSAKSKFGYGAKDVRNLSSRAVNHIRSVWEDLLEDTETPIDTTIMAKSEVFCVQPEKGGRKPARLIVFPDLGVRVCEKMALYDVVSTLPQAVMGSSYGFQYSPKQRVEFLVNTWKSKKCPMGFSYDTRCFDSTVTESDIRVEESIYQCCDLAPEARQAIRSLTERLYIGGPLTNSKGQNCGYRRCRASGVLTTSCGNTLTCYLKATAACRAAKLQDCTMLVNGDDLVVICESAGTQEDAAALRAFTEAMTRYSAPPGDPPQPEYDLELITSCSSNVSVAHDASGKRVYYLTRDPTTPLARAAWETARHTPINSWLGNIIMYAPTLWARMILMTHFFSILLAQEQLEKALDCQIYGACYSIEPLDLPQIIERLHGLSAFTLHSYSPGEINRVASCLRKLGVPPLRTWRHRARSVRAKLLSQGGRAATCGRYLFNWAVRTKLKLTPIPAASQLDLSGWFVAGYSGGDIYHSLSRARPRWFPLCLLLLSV

`CC(=O)N1c2ccccc2NC2=C(C(=O)CC(C)(C)C2)C1/C(Cl)=C/c1ccccc1` (stereo not shown): the melting point was 258 °C.
Still for that read-out and setting: the same measure for `CC(=O)N1c2c(CNCCCN(C)C)cccc2NC2=C(C(=O)CC(C)(C)C2)C1c1ccc(Cl)cc1Cl` (stereo not shown): 258 °C.
The same measure, in the same setting: in the case of `CC(=O)N1c2c(cccc2C(=O)NCCCN(C)C)NC2=C(C(=O)CC(C)(C)C2)C1c1ccc(Cl)cc1Cl` (stereo not shown) it was 226 °C; in that of `CC(=O)N1c2ccc(CN(C)C)cc2NC2=C(C(=O)CC(C)(C)C2)C1c1ccc(Cl)cc1Cl` (stereo not shown), > 260 °C; in that of `CC(=O)N1c2ccc(C(=O)O)cc2NC2=C(C(=O)CC(C)(C)C2)C1c1ccc(Cl)cc1Cl` (stereo not shown), > 250 °C.
`CC1(C)CC(=O)C2=C(C1)Nc1ccccc1N(C(=O)CC(=O)O)C2c1ccc(Cl)cc1Cl` (stereo not shown) registered a melting point of 200 °C.
On the same count and under the same terms, in the case of `CC(=O)N1c2ccc(CCCN)cc2NC2=C(C(=O)CC(C)(C)C2)C1c1ccc(Cl)cc1Cl` (stereo not shown) it was 242 °C.
In the case of `COC(=O)c1ccc2c(c1)NC1=C(C(=O)CC(C)(C)C1)C(c1ccc(Cl)cc1Cl)N2C(C)=O` (stereo not shown), the melting point is > 250 °C.
Consider `COC(=O)c1ccc2c(c1)N(C(C)=O)C(c1ccc(Cl)cc1Cl)C1=C(CC(C)(C)CC1=O)N2` (stereo not shown), for which the melting point was > 250 °C.
Still for that read-out and setting: in the case of `CC(=O)N1c2c(cccc2C(=O)O)NC2=C(C(=O)CC(C)(C)C2)C1c1ccc(Cl)cc1Cl` (stereo not shown) it was > 260 °C; in that of `CC(=O)N1c2c(CO)cccc2NC2=C(C(=O)CC(C)(C)C2)C1c1ccc(Cl)cc1Cl` (stereo not shown), 200 °C; in that of `CC(=O)N1c2c(CNCCN3CCOCC3)cccc2NC2=C(C(=O)CC(C)(C)C2)C1c1ccc(Cl)cc1Cl` (stereo not shown), 236 °C.
Still for that read-out and setting: the same measure for `CC(=O)N1c2c(cccc2C(=O)NCCc2ccncc2)NC2=C(C(=O)CC(C)(C)C2)C1c1ccc(Cl)cc1Cl` (stereo not shown): > 260 °C; for `CC(=O)N1c2c(CNCCc3ccncc3)cccc2NC2=C(C(=O)CC(C)(C)C2)C1c1ccc(Cl)cc1Cl` (stereo not shown): 212 °C; for `CCCN(C)Cc1cccc2c1N(C(C)=O)C(c1ccc(Cl)cc1Cl)C1=C(CC(C)(C)CC1=O)N2` (stereo not shown): > 260 °C.
The same measure, in the same setting: the same measure for `CC(=O)N1c2ccc(CN)cc2NC2=C(C(=O)CC(C)(C)C2)C1c1ccc(Cl)cc1Cl` (stereo not shown): > 260 °C.
`CC(=O)N1c2c(CN3CCOCC3)cccc2NC2=C(C(=O)CC(C)(C)C2)C1c1ccc(Cl)cc1Cl` (stereo not shown): the melting point was > 260 °C.
The same measure, in the same setting: in the case of `C=CCCC(=O)N1c2ccccc2NC2=C(C(=O)CC(C)(C)C2)C1c1ccc(Cl)cc1Cl` (stereo not shown) it was 200 °C.
The same measure, in the same setting: the same measure for `CNCc1ccc2c(c1)NC1=C(C(=O)CC(C)(C)C1)C(c1ccc(Cl)cc1Cl)N2C(C)=O` (stereo not shown): > 260 °C; for `CC1(C)CC(=O)C2=C(C1)Nc1cc(C(=O)O)ccc1NC2c1ccc(Cl)cc1Cl` (stereo not shown): > 250 °C; for `CC1(C)CC(=O)C2=C(C1)Nc1cc(CO)ccc1NC2c1ccc(Cl)cc1Cl` (stereo not shown): 160 °C.
Same read-out and setting: in the case of `CC1(C)CC(=O)C2=C(C1)Nc1ccc(CO)cc1NC2c1ccc(Cl)cc1Cl` (stereo not shown) it was 168 °C; in that of `CCOC(=O)c1cccc2c1NC(c1ccc(Cl)cc1Cl)C1=C(CC(C)(C)CC1=O)N2` (stereo not shown), 208 °C.
On to `CC1(C)CC(=O)C2=C(C1)Nc1cccc(CO)c1NC2c1ccc(Cl)cc1Cl` (stereo not shown), for which the melting point was > 260 °C.
On to `CC(=O)N1c2ccccc2NC2=C(C(=O)CC(C)(C)C2)C1c1ccc(Cl)cc1Cl` (single isomer, unassigned) [compound 38, 10-Acetyl-11-(2,4-dichlorophenyl)-2,3,4,5,10,11-hexahydro-3,3-dimethyl-1H-dibenzo[b,e][1,4]diazepin-1-one], for which the melting point was > 250 °C. The same compound came in with an IC50 in data set [1] (setting [3]) of 2.84 µM. The half-maximal effective concentration (EC50) in data set [2] (read-out: Replicon Assay EC50, Huh-Luc cells, three days incubation, luciferase activity) is 23.8 µM.
For `CC(=O)N1c2ccccc2NC2=C(C(=O)CC(C)(C)C2)C1c1ccc(OCc2ccccc2)c(Cl)c1` (single isomer, unassigned) [compound 304, 10-acetyl-11-[4-benzyloxy-3-chlorophenyl]-3,3-dimethyl-2,3,4,5,10,11-hexahydro-1H-dibenzo[b,e][1,4]diazepin-1-one], the melting point is 130 °C. The half-maximal inhibitory concentration (IC50) in data set [1] (setting [3]) stood at 0.46 µM. In data set [2] (setting [4]), the 50% effective concentration (EC50) stood at 7.59 µM.
As for `CC1(C)CC(=O)C2=C(C1)Nc1ccccc1N(C(=O)N1CCCCC1)C2c1ccc(Cl)cc1Cl` (stereo not shown) [compound 155], the melting point was > 260 °C. Besides, the IC50 in data set [1] (setting [3]) was > 133 µM.
The matching figures for `CC(=O)N1c2cc(C#N)ccc2NC2=C(C(=O)CC(C)(C)C2)C1c1ccc(Cl)cc1Cl` (stereo not shown) [compound 318]: > 250 °C and 67.1 µM.
Consider `CC(=O)N1c2ccccc2N(C)C2=C(C(=O)CC(C)(C)C2)C1c1ccc(Cl)cc1Cl` (stereo not shown) [compound 322], for which the melting point amounted to 145 °C. For the same compound, the 50% effective concentration (EC50) in data set [2] (setting [4]) amounted to 44.1 µM.
In the case of `COc1ccc([C@@H]2CC(=O)C3=C(C2)Nc2ccccc2N[C@H]3c2cccc3ccccc23)cc1OC` [compound 496], the half-maximal inhibitory concentration (IC50) in data set [1] (setting [5]) was > 42.7 µM. Further, in data set [2] (setting [6]), the EC50 worked out at 22.9 µM.
The matching figures for `CC1(C)CC(=O)C2=C(C1)Nc1ccccc1NC2c1cccnc1` (stereo not shown) [compound 499]: > 42.7 µM and > 32 µM.
The matching figures for `CCn1c2ccccc2c2cc(C3Nc4ccccc4NC4=C3C(=O)CC(C)(C)C4)ccc21` (stereo not shown) [compound 501]: > 42.7 µM and 19.8 µM.
The matching figures for `CC1(C)CC(=O)C2=C(C1)Nc1ccccc1NC2c1coc2c(Cl)cc(Cl)cc2c1=O` (stereo not shown) [compound 502]: > 42.7 µM and 13.2 µM.
Compound `CCn1c2ccccc2c2cc(C3Nc4cc(C)c(C)cc4NC4=C3C(=O)CC(C)(C)C4)ccc21` (stereo not shown) [compound 504] registered an IC50 in data set [1] (setting [5]) of 39.1 µM. Further, the concentration for a half-maximal effect (EC50) in data set [2] (setting [6]) is 17.1 µM.
The matching figures for `CC1(C)CC(=O)C2=C(C1)Nc1ccccc1NC2c1cc2c(cc1[N+](=O)[O-])OCO2` (stereo not shown) [compound 505]: > 42.7 µM and 13.5 µM.
The matching figures for `CN1c2ccccc2NC2=C(C(=O)CC(C)(C)C2)C1c1ccc(Cl)cc1Cl` (stereo not shown) [compound 507, 11-(2,4-Dichlorophenyl)-2,3,4,5,10,11-hexahydro-3,3,10-trimethyl-1H-dibenzo[b,e][1,4]diazepin-1-one]: > 42.7 µM and 4.63 µM.
The matching figures for `CCN1c2ccccc2NC2=C(C(=O)CC(C)(C)C2)C1c1ccc(Cl)cc1Cl` (stereo not shown) [compound 508, 11-(2,4-dichlorophenyl)-10-ethyl-2,3,4,5,10,11-hexahydro-3,3-dimethyl1H-dibenzo[b,e][1,4]diazepin-1-one]: > 42.7 µM and 1.37 µM.
`CCCN1c2ccccc2NC2=C(C(=O)CC(C)(C)C2)C1c1ccc(Cl)cc1Cl` (stereo not shown) [compound 509, 11-(2,4-Dichlorophenyl)-2,3,4,5,10,11-hexahydro-3,3-dimethyl-10-propyl-1H-dibenzo[b,e][1,4]diazepin-1-one]: in data set [1] (setting [5]), the IC50 is > 42.7 µM. Besides, in data set [2] (setting [6]), the EC50 came to 0.894 µM.
The matching figures for `COC(=O)CN1c2ccccc2NC2=C(C(=O)CC(C)(C)C2)C1c1ccc(Cl)cc1Cl` (stereo not shown) [compound 510]: > 133 µM and 4.56 µM.
In the case of `CC1(C)CC(=O)C2=C(C1)Nc1ccccc1N(CC(=O)O)C2c1ccc(Cl)cc1Cl` (stereo not shown) [compound 511], half-maximal inhibition in data set [1] (setting [5]) (IC50) was put at 1.9 µM. Besides, the EC50 in data set [2] (setting [6]) was > 100 µM.
